The text below walks through data of patent EP4790049A1, “BIPHENYL TETRAHYDROPYRROLE COMPOUND, PREPARATION METHOD THEREFOR AND USE THEREOF” (Hainan Yinrui Bio-Pharm Co., Ltd., priority 2023, dated 2025).

Structures can show the parent of a compound that is named as a salt.

One assay has as its target T1, Human recombinant MAO-B (Homo sapiens, UniProt P27338).
T1 construct: Full-length human recombinant MAO-A and MAO-B proteins were both expressed in Baculovirus infected Sf 9 cells; FLAG (N); host or cells: Baculovirus-infected Sf9 insect cells
T1 sequence (P27338 1-520): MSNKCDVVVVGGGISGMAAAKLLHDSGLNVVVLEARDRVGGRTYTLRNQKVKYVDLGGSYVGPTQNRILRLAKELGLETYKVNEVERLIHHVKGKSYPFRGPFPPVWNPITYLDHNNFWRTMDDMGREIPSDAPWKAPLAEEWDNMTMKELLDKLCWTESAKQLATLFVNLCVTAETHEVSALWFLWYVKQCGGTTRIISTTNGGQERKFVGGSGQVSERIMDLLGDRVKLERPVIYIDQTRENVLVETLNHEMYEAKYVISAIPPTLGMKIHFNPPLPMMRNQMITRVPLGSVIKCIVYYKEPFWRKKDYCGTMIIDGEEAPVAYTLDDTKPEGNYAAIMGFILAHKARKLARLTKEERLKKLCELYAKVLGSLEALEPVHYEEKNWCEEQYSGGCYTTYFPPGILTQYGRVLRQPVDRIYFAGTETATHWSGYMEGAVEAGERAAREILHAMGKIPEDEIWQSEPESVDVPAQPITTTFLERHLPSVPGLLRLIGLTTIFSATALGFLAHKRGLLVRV
The experiment in a line: Human recombinant MAO-B inhibitory activity assay (Promega MAO-Glo). Particulars: human recombinant enzyme expressed in Sf 9 cells; substrate benzylamine 40 µM; 15 min pre-incubation, 60 min reaction, room temperature; 10 concentrations, duplicate wells. In kind it is biochemical. The protocol:
(§1) Full-length human recombinant MAO-A and MAO-B proteins were both expressed in Baculovirus infected Sf 9 cells, containing an N-terminal FLAG tag, with a molecular weight of 59.8 kDa. […] A 40 µM substrate was incubated with the MAO protein at room temperature for 1 hour. The product generated by the oxidative deamination reaction between the MAO and the substrate was incubated with a fluorescent luminescent agent for 0.5 hours, and then the activity of the MAO was detected using the Promega MAO-Glo TM detection method.
(§2) Human recombinant monoamine oxidase A/B expressed in Sf 9 cells was used. During the experiment, the recombinant monoamine oxidase A/B was first dissolved in a HEPES buffer (0.8% NaCl, 0.037% KCl, 0.0135% Na2HPO4·2H2O, 0.1% Glucan, 0.5% HEPES, pH 7.0). 10 µL of the monoamine oxidase A/B solution was added to a 384-well plate, followed by the addition of the test compound (final DMSO concentration of 1%) in each well for 10 concentration gradients. […] The plate was incubated at room temperature for 15 minutes. 10 µL of a substrate solution (40 µM, with tyramine and benzylamine as substrates for MAO-A and MAO-B, respectively) was added to each well, followed by incubation at room temperature for 60 minutes. Subsequently, 20 µL of luciferin detection reagent was added to each well, mixed thoroughly, and incubated at room temperature for 20 minutes to generate a stable fluorescent signal. The fluorescent signal was read using a fluorescence microplate reader, and the values were expressed as relative light units (RLU). The experiment was designed with duplicate wells, and the average value was used to calculate the enzyme activity inhibition rate using the following formula: Inh% = (Max-Signal) / (Max-Min)∗100 [formula] • where Max is the value detected at the maximum concentration of the sample, Min is the value detected at the minimum concentration of the sample, and Signal is the value detected at the current concentration of the sample. […] Table 1. Activity Data IC50 (nM)

In another assay the target is T2, Human recombinant MAO-A (Homo sapiens, UniProt P21397).
T2 construct: Full-length human recombinant MAO-A and MAO-B proteins were both expressed in Baculovirus infected Sf 9 cells; FLAG (N); host or cells: Baculovirus-infected Sf9 insect cells
T2 sequence (P21397 1-527): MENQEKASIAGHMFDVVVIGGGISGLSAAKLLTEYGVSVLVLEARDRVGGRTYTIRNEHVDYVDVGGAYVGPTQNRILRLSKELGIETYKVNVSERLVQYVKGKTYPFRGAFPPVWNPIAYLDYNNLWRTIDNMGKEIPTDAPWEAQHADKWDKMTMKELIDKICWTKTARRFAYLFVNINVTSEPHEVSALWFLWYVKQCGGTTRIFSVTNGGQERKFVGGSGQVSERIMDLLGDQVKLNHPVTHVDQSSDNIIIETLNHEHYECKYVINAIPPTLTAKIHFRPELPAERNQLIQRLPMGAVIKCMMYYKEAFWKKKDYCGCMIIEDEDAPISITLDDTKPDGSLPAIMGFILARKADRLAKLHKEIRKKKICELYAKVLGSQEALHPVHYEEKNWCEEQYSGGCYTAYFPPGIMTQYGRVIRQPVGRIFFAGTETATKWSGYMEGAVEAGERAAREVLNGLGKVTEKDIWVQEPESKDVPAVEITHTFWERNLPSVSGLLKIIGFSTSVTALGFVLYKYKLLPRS
As to the kind of experiment: Human recombinant MAO-A inhibitory activity assay (Promega MAO-Glo). In kind it is biochemical. Particulars: human recombinant enzyme expressed in Sf 9 cells; substrate tyramine 40 µM; 15 min pre-incubation, 60 min reaction, room temperature; 10 concentrations, duplicate wells. The protocol: as §1, §2

Consider `NC(=O)[C@@H]1CC[C@H](c2ccc(-c3ccc(C(F)(F)F)cc3)cc2)N1` [Compound 1, hydrochloride], for which the IC50 – broadly, the midpoint of a concentration-inhibition curve – is 0.083 µM on Human recombinant MAO-B and above 10 µM at Human recombinant MAO-A.
The like results for `NC(=O)[C@@H]1CC[C@H](c2ccc(-c3ccc(F)cc3)cc2)N1` [Compound 2, hydrochloride] were, in that order, 1.51 µM and above 10 µM.
The matching figures for `NC(=O)[C@@H]1CC[C@H](c2ccc(-c3ccc(OC(F)(F)F)cc3)cc2)N1` [Compound 3, hydrochloride]: 0.199 µM and above 10 µM.
The like results for `NC(=O)[C@@H]1CC[C@H](c2ccc(-c3cccc(C(F)(F)F)c3)cc2)N1` [Compound 4, hydrochloride] were, in that order, 0.477 µM and above 10 µM.
As for `NC(=O)[C@@H]1CC[C@H](c2ccc(-c3cccc(F)c3)cc2)N1` [Compound 5, hydrochloride], the IC50 on Human recombinant MAO-B was 3.05 µM; at Human recombinant MAO-A, above 10 µM.
In the case of `NC(=O)[C@@H]1CC[C@@H](c2ccc(-c3ccc(C(F)(F)F)cc3)cc2)N1` [Compound 6, hydrochloride], the IC50 was 0.104 µM on Human recombinant MAO-B and above 10 µM on Human recombinant MAO-A.
The like results for `NC(=O)[C@H]1CC[C@H](c2ccc(-c3ccc(C(F)(F)F)cc3)cc2)N1` [Compound 7, hydrochloride] were, in that order, 0.147 µM and above 10 µM.
The matching figures for `NC(=O)[C@H]1CC[C@@H](c2ccc(-c3ccc(C(F)(F)F)cc3)cc2)N1` [Compound 8, hydrochloride]: 0.562 µM and 9.97 µM.
The like results for `NC(=O)[C@@H]1CC[C@H](c2ccc(-c3ccccc3C(F)(F)F)cc2)N1` [Compound 9, hydrochloride] were, in that order, 0.891 µM and above 10 µM.
As to `NC(=O)[C@@H]1CC[C@H](c2ccc(-c3ccc(Cl)cc3)cc2)N1` [Compound 10, hydrochloride], the half-inhibitory concentration (IC50) on Human recombinant MAO-B amounted to 0.564 µM; on Human recombinant MAO-A it was 83.3 µM.
The matching figures for `N#Cc1ccc(-c2ccc([C@H]3CC[C@@H](C(N)=O)N3)cc2)cc1` [Compound 11, hydrochloride]: 1.34 µM and 9.36 µM.
Turning to `NC(=O)[C@@H]1CC[C@H](c2ccc(-c3ccc([N+](=O)[O-])cc3)cc2)N1` [Compound 12, hydrochloride], the concentration for half-maximal inhibition (IC50) at Human recombinant MAO-B was determined as 0.796 µM; on Human recombinant MAO-A it was 6.32 µM.
The like results for `NC(=O)[C@@H]1CC[C@H](c2ccc(-c3ccc(C(=O)O)cc3)cc2)N1` [Compound 13, hydrochloride] were, in that order, 1.54 µM and above 10 µM.
For `NC(=O)c1ccc(-c2ccc([C@H]3CC[C@@H](C(N)=O)N3)cc2)cc1` [Compound 14, hydrochloride], the IC50 is 0.991 µM at Human recombinant MAO-B and above 10 µM at Human recombinant MAO-A.
The like results for `COC(=O)c1ccc(-c2ccc([C@H]3CC[C@@H](C(N)=O)N3)cc2)cc1` [Compound 15, hydrochloride] were, in that order, 0.784 µM and above 10 µM.
As for `NC(=O)[C@@H]1CC[C@H](c2ccc(-c3ccccc3)cc2)N1` [Compound 16, hydrochloride], the values for the IC50 at Human recombinant MAO-B and at Human recombinant MAO-A were 7.53 µM and above 10 µM, respectively.
The matching figures for `Cc1ccc(-c2ccc([C@H]3CC[C@@H](C(N)=O)N3)cc2)cc1` [Compound 17, (2S,5R)-5-[4-(4-methylphenyl)phenyl]-1H-pyrrole-2-carboxamide hydrochloride]: 0.71 µM and 6.33 µM.
The matching figures for `COc1ccc(-c2ccc([C@H]3CC[C@@H](C(N)=O)N3)cc2)cc1` [Compound 18, hydrochloride]: 3.57 µM and 9.11 µM.
The matching figures for `Cc1cc(-c2ccc(C(F)(F)F)cc2)ccc1[C@H]1CC[C@@H](C(N)=O)N1` [Compound 19, hydrochloride]: 0.891 µM and above 10 µM.
Take `COc1cc(-c2ccc(C(F)(F)F)cc2)ccc1[C@H]1CC[C@@H](C(N)=O)N1` [Compound 20, hydrochloride]: the IC50 on Human recombinant MAO-B is 0.998 µM; at Human recombinant MAO-A it was above 10 µM.
The like results for `N#Cc1cc(-c2ccc(C(F)(F)F)cc2)ccc1[C@H]1CC[C@@H](C(N)=O)N1` [Compound 21, hydrochloride] were, in that order, 1.36 µM and above 10 µM.
The matching figures for `NC(=O)[C@@H]1CC[C@H](c2cc(F)c(-c3ccc(C(F)(F)F)cc3)c(F)c2)N1` [Compound 22, hydrochloride]: 0.433 µM and above 10 µM.
The like results for `N#Cc1cc([C@H]2CC[C@@H](C(N)=O)N2)ccc1-c1ccc(C(F)(F)F)cc1` [Compound 23, hydrochloride] were, in that order, 2.53 µM and 9.83 µM.
With `NC(=O)[C@@H]1CC[C@H](c2c(F)cc(-c3ccc(C(F)(F)F)cc3)cc2F)N1` [Compound 24, hydrochloride], the concentration for half-maximal inhibition (IC50) on Human recombinant MAO-B is 0.773 µM; at Human recombinant MAO-A, above 10 µM.
The like results for `CC1C[C@H](c2ccc(-c3ccc(C(F)(F)F)cc3)cc2)N[C@@H]1C(N)=O` (some centres unmarked) [Compound 25, hydrochloride] were, in that order, 1.51 µM and above 10 µM.
As to `CN1[C@@H](c2ccc(-c3ccc(C(F)(F)F)cc3)cc2)CC[C@H]1C(N)=O` [Compound 26], the IC50 on Human recombinant MAO-B was 3.67 µM; on Human recombinant MAO-A, above 10 µM.
Regarding `CNC(=O)[C@@H]1CC[C@H](c2ccc(-c3ccc(C(F)(F)F)cc3)cc2)N1` [Compound 27, hydrochloride], the concentration for half-maximal inhibition (IC50) at Human recombinant MAO-B was 7.53 µM; at Human recombinant MAO-A, above 10 µM.
With `CN(C)C(=O)[C@@H]1CC[C@H](c2ccc(-c3ccc(C(F)(F)F)cc3)cc2)N1` [Compound 28, hydrochloride], the values for the concentration for half-maximal inhibition (IC50) at Human recombinant MAO-B and at Human recombinant MAO-A were 1 µM and above 10 µM, respectively.
The like results for `CCN1[C@@H](c2ccc(-c3ccc(C(F)(F)F)cc3)cc2)CC[C@H]1C(N)=O` [Compound 30] were, in that order, 0.562 µM and above 10 µM.
The matching figures for `O=C(O)[C@@H]1CC[C@H](c2ccc(-c3ccc(F)cc3)cc2)N1` [Compound 31, hydrochloride]: 0.533 µM and above 10 µM.
The matching figures for `COC(=O)[C@@H]1CC[C@H](c2ccc(-c3ccc(F)cc3)cc2)N1` [Compound 32, hydrochloride]: 1.99 µM and above 10 µM.
